ChEMBL document CHEMBL3102830, “Involvement of apoptosis and autophagy in the death of RPMI 8226 multiple myeloma cells by two enantiomeric sigma receptor ligands” (Bioorg Med Chem, 2014)
Calls of active or inactive are those of the source. No cut-off for these calls is given here.

What was measured:
[1] = Displacement of [3H]-DTG from sigma-2 receptor in rat liver homogenates in presence of (+)-pentazocine; assay type: tissue-based
[2] = Displacement of [3H]-DTG from sigma-2 receptor in human RT4 cell homogenates in presence of (+)-pentazocine; assay type: tissue-based; conditions: rt-4
RPMI-8226 [3] = test: Induction of apoptosis in human RPMI8226 cells assessed as early apoptotic cells at 36 uM after 48 hrs by annexin V/propidium iodide staining-based flow cytometric analysis; assay type: functional, cell-based
HL-60 = test: Cytotoxicity against human HL60 cells assessed as cell viability at 20 uM after 72 hrs by MTT assay; assay type: functional, cell-based
[4] = biological target: Sigma non-opioid intracellular receptor 1 (Homo sapiens, UniProt Q99720); test: Displacement of [3H]-(+)-pentazocine from sigma-1 receptor in human RPMI8226 cells; assay type: cell-based, RPMI-8226
[5] = biological target: Sigma non-opioid intracellular receptor 1 (Cavia porcellus, UniProt Q60492); test: Displacement of [3H]-(+)-pentazocine from sigma-1 receptor in guinea pig brain homogenates; assay type: tissue-based
RPMI-8226 [6] = test: Induction of apoptosis in human RPMI8226 cells assessed as caspase-8 cleavage at 36 uM after 6 to 96 hrs by Western blotting analysis; assay type: functional, cell-based
RPMI-8226 [7] = test: Induction of apoptosis in human RPMI8226 cells assessed as dead cells at 36 uM after 48 hrs by annexin V-FITC/propidium iodide staining-based flow cytometric analysis in presence of apoptosis inhibitor 2,2'-methylenebis(1,3-cyclohexandione) relative to control; assay type: functional
RPMI-8226 [8] = test: Induction of apoptosis in human RPMI8226 cells assessed as decrease in Bid protein expression at 36 uM up to 96 hrs by Western blotting analysis; assay type: functional, cell-based
RPMI-8226 [9] = test: Selectivity ratio of Ki for sigma-2 receptor in human RT4 cell homogenates to Ki for sigma-1 receptor in human RPMI8226 cells; assay type: cell-based
RPMI-8226 [10] = test: Induction of autophagy in human RPMI8226 cells assessed as p62 protein expression at 36 uM after 6 to 96 hrs by Western blotting analysis; assay type: functional, cell-based
RPMI-8226 [11] = test: Induction of apoptosis in human RPMI8226 cells assessed as early apoptotic cells at 36 uM after 24 hrs by annexin V/propidium iodide staining-based flow cytometric analysis in presence of alpha-tocopherol; assay type: functional, cell-based
[12] = Selectivity ratio of Ki for sigma-2 receptor in rat liver homogenates to Ki for sigma-1 receptor in guinea pig brain homogenates; assay type: tissue-based
RPMI-8226 [13] = test: Cytotoxicity against human RPMI8226 cells assessed as cell viability after 72 hrs by MTT assay; assay type: functional, cell-based; conditions: for IC50: RPMI-8226, 72 h
RPMI-8226 [14] = test: Induction of autophagy in human RPMI8226 cells assessed as […] at 36 uM by Western blotting analysis; assay type: functional, cell-based; conditions: TDE = time-dependent effect
RPMI-8226 [15] = test: Induction of apoptosis in human RPMI8226 cells at 36 uM after 6 hrs by annexin V-FITC/propidium iodide staining-based flow cytometric analysis; assay type: functional, cell-based
RPMI-8226 [16] = test: Induction of apoptosis in human RPMI8226 cells assessed as early apoptotic cells at 36 uM after 24 hrs by annexin V/propidium iodide staining-based flow cytometric analysis; assay type: functional, cell-based
RPMI-8226 [17] = test: Induction of apoptosis in human RPMI8226 cells assessed as dead cells at 36 uM after 48 hrs by annexin V-FITC/propidium iodide staining-based flow cytometric analysis relative to control; assay type: functional
RPMI-8226 [18] = test: Induction of apoptosis in human RPMI8226 cells assessed as caspase-8 activation at 36 uM by flow cytometric analysis in presence of FITC-IETD-FMK; assay type: functional, cell-based; conditions: TDE = time-dependent effect
RPMI-8226 [19] = test: Induction of apoptosis in human RPMI8226 cells assessed as early apoptotic cells at 36 uM after 48 hrs by annexin V-FITC/propidium iodide staining-based flow cytometric analysis; assay type: functional, cell-based
RPMI-8226 [20] = test: Induction of apoptosis in human RPMI8226 cells assessed as early apoptotic cells at 36 uM after 48 hrs by annexin V-FITC/propidium iodide staining-based flow cytometric analysis in presence of wortmannin; assay type: functional, cell-based
RPMI-8226 [21] = test: Induction of apoptosis in human RPMI8226 cells assessed as increase in apoptotic cells at 36 uM after 24 to 48 hrs by annexin V-FITC/propidium iodide staining-based flow cytometric analysis; assay type: functional, cell-based
RPMI-8226 [22] = test: Induction of apoptosis in human RPMI8226 cells assessed as increase in Bcl2 protein expression at 36 uM by Western blotting analysis; assay type: functional, cell-based; conditions: TDE = time-dependent effect
RPMI-8226 [23] = test: Induction of apoptosis in human RPMI8226 cells assessed as decrease in Bax protein expression at 36 uM by Western blotting analysis; assay type: functional, cell-based; conditions: TDE = time-dependent effect
RPMI-8226 [24] = test: Induction of apoptosis in human RPMI8226 cells assessed as PARP-1 cleavage at 36 uM after 6 hrs by Western blotting analysis; assay type: functional, cell-based
RPMI-8226 [25] = test: Induction of apoptosis in human RPMI8226 cells at 36 uM after 48 hrs by annexin V-FITC/propidium iodide staining-based flow cytometric analysis in presence of caspase inhibitor z-VAD-FMK; assay type: functional, cell-based
RPMI-8226 [26] = test: Induction of apoptosis in human RPMI8226 cells assessed as caspase-9 protein expression at 36 uM after 6 to 96 hrs by Western blotting analysis; assay type: functional, cell-based
RPMI-8226 [27] = test: Induction of apoptosis in human RPMI8226 cells assessed as caspase-9 activation at 36 uM by flow cytometric analysis in presence of […]; assay type: functional, cell-based; conditions: TDE = time-dependent effect
RPMI-8226 [28] = test: Induction of apoptosis in human RPMI8226 cells assessed as caspase-3 activation at 36 uM by flow cytometric analysis in presence of […]; assay type: functional, cell-based; conditions: TDE = time-dependent effect
RPMI-8226 [29] = test: Induction of apoptosis in human RPMI8226 cells assessed as chromatin condensation at 36 uM after 24 to 48 hrs by DAPI staining-based fluorescence microscopic analysis; assay type: functional, cell-based
RPMI-8226 [30] = test: Induction of apoptosis in human RPMI8226 cells assessed as early/late apoptotic cells at 36 uM after 48 hrs by annexin V/propidium iodide staining-based flow cytometric analysis in presence of alpha-tocopherol; assay type: functional, cell-based
[31] = Binding affinity to sigma-2 receptor in human MCF7 cells; assay type: cell-based

Sigma non-opioid intracellular receptor 1 (Cavia porcellus, UniProt Q60492), sequence (Q60492 whole entry): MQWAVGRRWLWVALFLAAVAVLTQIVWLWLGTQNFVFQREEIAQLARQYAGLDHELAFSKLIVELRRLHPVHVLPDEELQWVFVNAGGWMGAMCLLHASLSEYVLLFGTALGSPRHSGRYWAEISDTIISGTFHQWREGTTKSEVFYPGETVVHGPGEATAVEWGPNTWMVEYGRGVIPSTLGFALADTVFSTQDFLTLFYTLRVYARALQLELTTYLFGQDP
Sigma non-opioid intracellular receptor 1 (Homo sapiens, UniProt Q99720), sequence (Q99720 whole entry): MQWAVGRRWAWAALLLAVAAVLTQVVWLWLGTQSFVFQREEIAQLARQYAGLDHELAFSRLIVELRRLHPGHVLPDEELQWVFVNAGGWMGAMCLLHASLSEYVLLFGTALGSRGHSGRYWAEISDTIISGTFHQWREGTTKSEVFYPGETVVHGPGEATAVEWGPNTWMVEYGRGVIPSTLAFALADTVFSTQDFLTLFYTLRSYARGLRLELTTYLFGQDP

COc1ccc(CN2CCN(Cc3ccccc3)CC2)cc1
Ki [1]: 0.161 µM

OCC[C@H]1CN(CC2CCCCC2)CCN1Cc1ccc(-c2ccccc2)cc1
Ki [2]: 0.043 µM
Activity (RPMI-8226 [3]): inactive
Activity (HL-60): inactive
Ki [4]: 0.034 µM
Ki [5]: 0.0035 µM
Activity (RPMI-8226 [6]): Active
Activity (RPMI-8226 [7]): 21%
Activity (RPMI-8226 [8]): inactive
Ratio Ki (RPMI-8226 [9]): 1.3
Activity (RPMI-8226 [10]): inactive
Activity (RPMI-8226 [11]): Active
Ratio Ki [12]: 20.8
Activity (RPMI-8226 [13]): Dose-dependent effect
IC50 (RPMI-8226 [13]): 21.3 µM
Activity (RPMI-8226 [14]): tde
Activity (RPMI-8226 [15]): inactive
Activity (RPMI-8226 [16]): Active
Activity (RPMI-8226 [17]): 18%
Activity (RPMI-8226 [18]): tde
Activity (RPMI-8226 [19]): Active
Activity (RPMI-8226 [20]): Active
Activity (RPMI-8226 [21]): Active
Activity (RPMI-8226 [22]): tde
Activity (RPMI-8226 [23]): tde
Ki [1]: 0.073 µM
Activity (RPMI-8226 [24]): Active
Activity (RPMI-8226 [25]): Active
Activity (RPMI-8226 [26]): inactive
Activity (RPMI-8226 [27]): tde
Activity (RPMI-8226 [28]): tde
Activity (RPMI-8226 [29]): Active
Activity (RPMI-8226 [30]): inactive

COc1cccc2c1CCCC2CCCN1CCN(C2CCCCC2)CC1 (stereo not given)
IC50 (RPMI-8226 [13]): 9.29 µM
Ki [31]: 0.00028 µM
